Source: patent US20260364138A1, “ENRICHED ASPARAGUS RACEMOSUS ROOT COMPOSITION AND PROCESS FOR PREPARATION THEREOF” (LAILA NUTRA PRIVATE LIMITED, priority 2023, published 2026)

Columns and labels:
[1] = test system: Cyclophosphamide-induced primary ovarian insufficiency in Sprague Dawley rats; assay: Cyclophosphamide-induced primary ovarian insufficiency in female Sprague Dawley rats, total follicular count; details: rat, in vivo
Procedure: Evaluation of Asparagus racemosus enriched extract compositions supplementation on total follicular count of female Sprague Dawley rats: Ovarian follicles contain oocytes and surrounded by granulosa cells. Four different types of follicles are observed in ovaries based on their development stages: primordial, primary, secondary, and tertiary (antral). The number of primordial follicles, which is the true ovarian reserve, is determined in the fetus and declines throughout life. However, the primordial follicles cannot be visualized by ultrasound due to their small size (<0.05 mm diameter). The antral or Graafian follicles are more easily identifiable by ultrasound when they reach 2 mm in diameter. It is recommended that a follicular count needs to be performed in the early follicular phase of the menstrual cycle. However, considering the intracycle fluctuation of ovarian reserve, a follicular count may be performed at any point in the menstrual cycle. […]
Example 28: In-vivo efficacy of AR-1 and Comp-1 in mitigating Cyclophosphamide-induced primary ovarian insufficiency in Sprague Dawley rats. […] Twenty randomly selected fields were analysed for primordial, primary, antral, […], and atretic follicles, and the average of total number of follicles present in each tissue section was calculated.

[2] = test system: Letrozole-induced PCOS in female Sprague Dawley rats; assay: Oral glucose tolerance test (OGTT) in letrozole-induced PCOS rats; format: in vivo; details: mean ± SD, n = 7, 20 mg/kg daily days 22-48 after letrozole induction, letrozole group 1 mg/kg without test item, day 49
From the text: Evaluation of Asparagus racemosus synergistic enriched extract compositions (comp-26, comp-27, comp-28 and 90% aqueous ethanol extract (AR-2) supplementation in letrozole-induced PCOS in female Sprague Dawley rats: Oral glucose tolerance test (OGTT): OGTT measures circulatory glucose levels following glucose ingestion, and this test is widely used as an indicator of insulin resistance. PCOS is known to cause metabolic dysfunctions, including insulin resistance. Letrozole-induced rats show impaired glucose tolerance and increased blood glucose in circulation, which closely mimics the clinical features of glucose intolerance or insulin resistance in PCOS.
Area Under the Curve (AUC) was calculated using serum glucose concentration Vs. time (in min). The AUC value was increased in letrozole-induced (G2) rats when compared with the Vehicle control (G1) rats, indicating impaired glucose tolerance or increased insulin resistance.
(§1) Following a 7-day acclimatization period, female Sprague Dawley rats (age: 10-12 weeks, body weight 250-300 g) were randomly assigned to six groups (n=7): vehicle control (G1), Letrozole (G2; 1 mg/kg), AR-2 (G3; 20 mg/kg), Comp-26 (G4; 20 mg/kg), Comp-27 (G5; 20 mg/kg), and Comp-28 (G6; 20 mg/kg).
The study was performed in two phases i.e., the induction and supplementation phases. […]

[3] = test system: Letrozole-induced PCOS in female Sprague Dawley rats; assay: Serum testosterone in letrozole-induced PCOS rats; format: in vivo; details: mean ± SD, n = 7; 20 mg/kg daily after letrozole induction; letrozole group 1 mg/kg; day 48
Procedure: as §1
(§2) The study was performed in two phases i.e., the induction and supplementation phases. In the induction phase, all the animals, except for G1, were gavaged with letrozole to induce PCOS for 21 days. In the supplementation phase (from days 22 to 48), all rats were supplemented once daily with either the vehicle or one of the test items. An oral glucose tolerance test (OGTT) was performed on day 49 in overnight fasted rats. Blood samples were collected on day 48. The serum was separated by centrifuging the blood samples at 3200×g for 15 minutes at 4 °C and stored at −80 °C in aliquots for biomarker analysis. On day 50, all rats were euthanized using CO2 asphyxiation, and their ovaries were collected. The ovaries were fixed in 10% normal buffered formalin for histopathology examination. The fixed tissues were paraffin-embedded, sectioned (5-7 μm) using a microtome, and stained with hematoxylin-eosin following the standard protocols. The stained tissue sections were examined at 10× magnification under a light microscope (Carl Zeiss, Germany).

[4] = test system: Letrozole-induced PCOS in female Sprague Dawley rats; assay: Serum 17β-estradiol in letrozole-induced PCOS rats; format: in vivo; details: mean ± SD, n = 7; 20 mg/kg daily after letrozole induction; letrozole group 1 mg/kg; day 48
Procedure: as §1, §2

[5] = test system: estrogen receptor alpha phosphorylated at Serine 118 position (pER-α); assay: Evaluation of estrogen-receptor alpha (ER-α) phosphorylation by Western blot assay (normalized pER-α expression) in MCF-7 cells; format: cell-based, Human; details: 0.2 μg/mL, MCF-7, 4 h; for pER-α expression (normalized): Table 3 (vehicle control 0.28); for activation at 0.2 µg/mL: Homo sapiens, MCF7, read-out: % increase of pER-α (from vehicle control)
Procedure: The four compounds of Asparagus racemosus root Shatavarin I, dehydroshatavarin I, shatavarin IV, and shatavarin IX, and their combinations were evaluated for their ability to enhance the pER-α (estrogen receptor alpha phosphorylated at Serine 118 position) expression in a human breast tumor cell line, MCF-7, and the results are presented in Table 3. pER-α represents the active form of the hormone receptor.
Human MCF-7 cells (ATCC Cat #HTB-22; 5×10^5 cells/well in 3 mL) were seeded in 6-well cell culture plates and maintained in DMEM medium containing 10% FBS at 37 °C in a humidified atmosphere of 5% CO2. After 48 hours of seeding, cells were washed twice with serum-free DMEM medium (without phenol red) and maintained in the same media for another 24 hours. Cells were treated with different test samples (0.2 μg/mL) in serum-free DMEM medium and incubated for 4 hours at 37 °C in a CO2 incubator. The untreated cells served as a vehicle control.
Western blot: After the incubation, cell culture plates were placed on an ice tray and washed twice with cold 1×PBS. Eighty microliters of lysis buffer (10 mM Tris-HCl pH 7.4, 150 mM NaCl, 1 mM EDTA, 1 mM [COMPOUND LEFT OUT], 10 μg/mL Aprotinin, 10 μg/mL Leupeptin, 1% Triton X-100, 1 mM NaF, 1 mM Na3VO4, 0.5% Sodium deoxycholate, and 1 μM Pepstatin) was added to each well and sonicated for 30 seconds. Following homogenization, samples were centrifuged at 16128×g for 10 minutes at 4 °C to sediment unbroken cells and nuclei. Supernatant was collected, and protein was quantified using a Pierce BCA protein assay kit (Thermo Scientific Cat #23225). SDS-PAGE was performed for the protein samples, and resolved proteins were transferred onto nitrocellulose membrane using the wet blotting method. Briefly, 10 μg of protein was loaded onto acrylamide gel (7.5% resolving) and ran at 100V for approximately 1 hour 40 minutes. At the end of the run, proteins were transferred to the nitrocellulose membrane by placing transfer system at 4 °C chamber (100V for 2 hours). After the transfer, the membrane was washed in 0.1M Tris-buffered saline containing 0.05% Tween20 (TBST) and blocked in Superblock blocking buffer (Thermo Scientific Cat #37535) with constant agitation for 30 minutes. The membrane was incubated with primary antibodies recognizing phospho-ER-α (Phosphorylation site: Ser118) in TBST for 16 hours at 4 °C with agitation. The membrane was washed three times and incubated with peroxidase affiniPure goat anti-rabbit secondary antibody (Jackson ImmunoResearch Cat #111-035-045; 1:10000 dilution) for 1 hour at room temperature with agitation, followed by three times of washing in TBST for 5 minutes each. Immunoreactive bands were detected using a chemiluminescent substrate (Thermo Scientific Cat #34080) and images were captured using Bio-Rad Molecular imager (Model: ChemiDOC MP). Membrane was stripped of the phospho-ER-α antibody and re-probed with […] antibody (Sigma Chemical Co., USA; 1:10000 dilution) by incubating at room temperature for 2 hours and images were captured. The intensities of phospho-ER-α and actin protein bands were calculated using Carestream MI software and normalized. The normalized pER-α expression (in arbitrary units) was measured using the following formula: […]

| Compound | pER-α expression (normalized) [5] [arbitrary units] | activation at 0.2 µg/mL ([5]; markers, Table 3) [%] | other results |
| --- | --- | --- | --- |
| O=P1(N(CCCl)CCCl)NCCCO1 (stereo not shown) [Cyclophosphamide] | – | – | Average total follicular count [1]: 5.63 per section |
| N#Cc1ccc(C(c2ccc(C#N)cc2)n2cncn2)cc1 [Letrozole] | – | – | AUC (serum glucose, OGTT) [2]: 21030 ± 4007 mg/dL/min; AUC (serum glucose, OGTT) ([2]; listed as letrozole): increased; Testosterone concentration (serum) [3]: 3.18 ± 1.16 pg/mL; 17β-Estradiol concentration (serum) [4]: 32.97 ± 13.89 pg/mL |
| CC1CCC2(OC1)OC1CC3C4CCC5CC(OC6OC(CO)C(OC7OC(C)C(O)C(O)C7O)C(O)C6OC6OC(CO)C(O)C(O)C6O)CCC5(C)C4CCC3(C)C1C2C (stereo not shown) [Shatavarin IV] | 0.40 | 42.9 | – |
| CC1CCC2(OC1)OC1CC3C4CCC5CC(OC6OC(CO)C(OC7OC(CO)C(O)C(O)C7O)C(O)C6OC6OC(CO)C(O)C(O)C6O)CCC5(C)C4CCC3(C)C1C2C (stereo not shown) [Shatavarin IX] | 0.38 | 35.7 | – |
| CC(CCC1(O)OC2CC3C4CCC5CC(OC6OC(CO)C(OC7OC(C)C(O)C(O)C7O)C(O)C6OC6OC(CO)C(O)C(O)C6O)CCC5(C)C4CCC3(C)C2C1C)COC1OC(CO)C(O)C(O)C1O (stereo not shown) [Shatavarin I] | 0.34 | 21.4 | – |
| dehydroshatavarin I | 0.45 | – | % increase of pER-α (from vehicle control) ([5]; markers, Table 3): 60.71% |
